According to BindingDB's records for doi:10.1021/jm00144a035 (1982):
pKi: −log10 of the molar value.

Target: Choline O-acetyltransferase (squid)
Assay: Inhibition of choline acetyltransferase isolated from squid head ganglia

pKi | SMILES
5.64 | CSSCCNC(=O)CCNC(=O)C(O)C(C)(C)COP(=O)(O)OP(=O)(O)OC[C@H]1O[C@@H](n2cnc3c(N)ncnc32)[C@H](O)[C@@H]1OP(=O)(O)O (some centres not stated) [Methyldisulfanyl analogue of coenzyme A]
5.74 | Nc1c(S(=O)(=O)O)cc(Nc2ccc(Nc3nc(Nc4ccc(S(=O)(=O)O)cc4)nc(=O)[nH]3)c(S(=O)(=O)O)c2)c2c1C(=O)c1ccccc1C2=O [1-Amino-4-{4-[4-hydroxy-6-(4-sulfo-phenylamino)-[1,3,5]triazin-2-ylamino]-3-sulfo-phenylamino}-9,10-dioxo-9,10-dihydro-anthracene-2-sulfonic acid]
